Like-named read-outs stand apart in the source and are kept apart here. Starred links: 1 amine or outer side, 2 acyl side, 3 side chain; linkers in the order of their positions; H or OH if unused. Positions of bridges follow the written chain, without caps; N, C: chain ends. Residues, ends and D or L forms follow the SMILES beside them. *: point of attachment. C18 diacid = O=C(O)CCCCCCCCCCCCCCCCC(=O)*; γGlu = O=C(O)[C@H](CCC(=O)[*:2])N[*:1]; AEEA = NCCOCCOCC(=O)O
Tests used:
[1] = PK after i.v. and s.c. administration to Göttingen minipig; settings: female, in vivo, Göttingen Minipig
How it was run: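 Female Göttingen minipigs (6-12 months, ~22 kg) and domestic LYD pigs (4-5 months, ~80 kg) given CNP compounds i.v. (30-60 or 15-43 nmol/kg) or s.c. neck (55-62 or 20-30 nmol/kg) via catheter/pen. EDTA plasma sampled up to 14 days, CNP and cGMP by LC-MS; non-compartmental PK, F from dose-normalized AUC s.c./i.v.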

[2] = Telemetry measurement of heart rate and blood pressure in awake rats; format: in vivo, Sprague Dawley rat; settings: for Heart rate: 30 min, P (vs vehicle) / Heart rate: 12 h, P (vs vehicle) / Mean arterial pressure: 30 min, P (vs vehicle) / Mean arterial pressure: 12 h, P (vs vehicle): paired t test; for Heart rate: 12 h, Mean (bpm) / Mean arterial pressure: 12 h, Mean (mmHg) / Heart rate: 30 min, Mean (bpm) / Mean arterial pressure: 30 min, Mean (mmHg): awake rats; for Heart rate: 12 h, Mean (bpm) / Mean arterial pressure: 12 h, Mean (mmHg): average of first 12 h; for Heart rate: 30 min, Mean (bpm) / Mean arterial pressure: 30 min, Mean (mmHg): first 30 min; for increase in HR: P<0.05
Experimental: The purpose of the study was to investigate the effect of acute dosing with the CNP compound 9482 (Chem. 137) on mean blood pressure (MAP) and heart rate (HR) in awake rats.
Procedure: The transducers are implanted in Sprague Dawley rats (Charles River) and the rats are allowed a 2-3-week period for recovery. Before surgery, the devices are registered in the software by placing them on a receiver plate and powered on. Sterile saline is added to the transducer catheter before surgery start, and the transmitter is then powered on. The transmitters are placed in the abdomen with the sensor in aorta abdominalis. Isoflurane is used as anaesthetic, and during and after surgery, the rats receive Temgesic (0.05 mg/kg s.c.), Norodyl (5 mg/kg s.c.), and Baytril (10 mg/kg s.c.) as pain relief and to prevent bacterial infection.
Study design: Rats are housed 2/cage (1 with device and 1 as social partner). All animals will have free access to water and food (altromin) throughout the entire study. The rats will be housed in light cycles with light from 6 AM to 6 PM and dark from 6 PM to 6 AM. Eight rats are divided into 2 groups according to a crossover study design.
Telemetry: Each rat is equipped with a transducer (HD-S10 from DSI) capable of measuring blood pressure, heart rate, and activity using Ponemah software with a 100 Hz frequency. During measurements, there should be no disturbances in the room that the rats are housed in to minimize variability in the data. A 4-hour baseline recording will be taken prior to start of the study to capture mean arterial pressure (MAP) and heart rate (HR) patterns in untreated, undisturbed rats. The recording period after drug administration was 24 hours.
Dosing scheme: Rats are dosed in a crossover study design with 4 rats in each group. Each rat is given a washout period of 1 week prior to the next dosing event. Dosing will be intravenous (IV) in the tail vein. Dosing of 9482 was tested in 30, 100, and 300 nmol/kg i.v. in separate experiments. The vehicle consists of 8 mM phosphate, 250 mM glycerol, pH 7.4.
Data analysis and statistics was conducted in Ponemah software and Graphpad prism. For statistics, a paired t test was applied with a confidence level of 95% and P<0.05 denoting statistical significance.

[3] = first 30 min after dosing, 30, 100, or 300 nmol/kg i.v.

SMILES: CC[C@H](C)[C@@H]1NC(=O)[C@H](CCCNC(=N)N)NC(=O)[C@H](CC(=O)O)NC(=O)[C@H](CC(C)C)NC(=O)[C@@H]2CCCN2C(=O)[C@H](CC(C)C)NC(=O)CNC(=O)[C@H](Cc2ccccc2)NC(=O)[C@@H](NC(=O)CNC(=O)[C@H](CCC(N)=O)NC(=O)[C@H](CO)NC(=O)[C@H](CC(C)C)NC(=O)CNC(=O)[C@H](CCCCN)NC(=O)[C@H](CCCCN)NC(=O)[C@H](CCC(N)=O)NC(=O)[C@H](C)NC(=O)CNC(=O)[C@H](CCCCN)NC(=O)[C@H](Cc2ccc(O)cc2)NC(=O)COCCOCCNC(=O)COCCOCCNC(=O)COCCOCCNC(=O)COCCOCCNC(=O)CC[C@H](NC(=O)CC[C@H](NC(=O)CC[C@H](NC(=O)CCCCCCCCCCCCCCCCC(=O)O)C(=O)O)C(=O)O)C(=O)O)CSSC[C@@H](C(=O)O)NC(=O)CNC(=O)[C@H](CC(C)C)NC(=O)CNC(=O)[C@H](CO)NC(=O)[C@H](CC(C)C)NC(=O)[C@H](CO)NC(=O)CNC1=O [Compound 9480] ({C18 diacid-γGlu-γGlu-γGlu-AEEA-AEEA-AEEA-AEEA}-YKGAQKKGLSQGCFGLPLDRIGSLSGLGC-OH; disulfide 13-29)
- clearance ([1]; iv, i.v., read-out: CL (ml/hr/kg), Intravenous PK (converted)): 1.13 mL/h/kg
- half-life ([1]; iv, i.v., read-out: T½, iv (converted)): 74 h
- bioavailability ([1]; sc, s.c. bioavailability, read-out: F (%), Subcutaneous PK): 87%
- half-life ([1]; sc, s.c., read-out: T½, sc (converted)): 67 h

SMILES: CC[C@H](C)[C@@H]1NC(=O)[C@H](CCCNC(=N)N)NC(=O)[C@H](CC(=O)O)NC(=O)[C@H](CC(C)C)NC(=O)[C@@H]2CCCN2C(=O)[C@H](CC(C)C)NC(=O)CNC(=O)[C@H](Cc2ccccc2)NC(=O)[C@@H](NC(=O)CNC(=O)[C@H](CO)NC(=O)[C@H](CO)NC(=O)[C@H](CC(C)C)NC(=O)CNC(=O)[C@H](CCCCN)NC(=O)[C@H](CCCCN)NC(=O)[C@H](CCC(N)=O)NC(=O)[C@H](C)NC(=O)CNC(=O)[C@H](CCCCN)NC(=O)[C@H](Cc2ccc(O)cc2)NC(=O)[C@H](CCCCN)NC(=O)[C@H](CCCNC(=N)N)NC(=O)[C@H](C)NC(=O)[C@H](CCC(N)=O)NC(=O)[C@@H]2CCCN2C(=O)[C@H](Cc2c[nH]cn2)NC(=O)[C@H](CCC(=O)O)NC(=O)[C@H](CCC(N)=O)NC(=O)CC[C@H](NC(=O)CC[C@H](NC(=O)CC[C@H](NC(=O)CC[C@H](NC(=O)CC[C@H](NC(=O)CCCCCCCCCCCCCCCCC(=O)O)C(=O)O)C(=O)O)C(=O)O)C(=O)O)C(=O)O)CSSC[C@@H](C(=O)O)NC(=O)CNC(=O)[C@H](CC(C)C)NC(=O)CNC(=O)[C@H](CO)NC(=O)[C@H](CC(C)C)NC(=O)[C@H](CO)NC(=O)CNC1=O [compound 9482] ({C18 diacid-γGlu-γGlu-γGlu-γGlu-γGlu}-QEHPQARKYKGAQKKGLSSGCFGLPLDRIGSLSGLGC-OH; disulfide 21-37)
- Heart rate: 30 min, P (vs vehicle) ([2]; 30 nmol/kg i.v.): ns
- Heart rate: 12 h, P (vs vehicle) ([2]; 30 nmol/kg i.v.): ns
- Mean arterial pressure: 30 min, P (vs vehicle) ([2]; 30 nmol/kg i.v.): ns
- Mean arterial pressure: 12 h, P (vs vehicle) ([2]; 30 nmol/kg i.v.): ns
- Heart rate: 30 min, P (vs vehicle) ([2]; 100 nmol/kg i.v.): ns
- Heart rate: 12 h, P (vs vehicle) ([2]; 100 nmol/kg i.v.): 0.04
- Mean arterial pressure: 30 min, P (vs vehicle) ([2]; 100 nmol/kg i.v.): ns
- Mean arterial pressure: 12 h, P (vs vehicle) ([2]; 100 nmol/kg i.v.): ns
- Heart rate: 30 min, P (vs vehicle) ([2]; 300 nmol/kg i.v.): ns
- Heart rate: 12 h, P (vs vehicle) ([2]; 300 nmol/kg i.v.): 0.03
- Mean arterial pressure: 30 min, P (vs vehicle) ([2]; 300 nmol/kg i.v.): ns
- Mean arterial pressure: 12 h, P (vs vehicle) ([2]; 300 nmol/kg i.v.): ns
- MAP compared to vehicle ([2]; average of the first 12 h, three tested doses i.v.): no differences
- Heart rate: 12 h, Mean (bpm) ([2]; 30 nmol/kg i.v.): 332 bpm
- Mean arterial pressure: 12 h, Mean (mmHg) ([2]; 30 nmol/kg i.v.): 106 mmHg
- Heart rate: 30 min, Mean (bpm) ([2]; 30 nmol/kg i.v.): 356 bpm
- Mean arterial pressure: 30 min, Mean (mmHg) ([2]; 30 nmol/kg i.v.): 116 mmHg
- Heart rate: 12 h, Mean (bpm) ([2]; 100 nmol/kg i.v.): 364 bpm
- Mean arterial pressure: 12 h, Mean (mmHg) ([2]; 100 nmol/kg i.v.): 104 mmHg
- Heart rate: 30 min, Mean (bpm) ([2]; 100 nmol/kg i.v.): 388 bpm
- Mean arterial pressure: 30 min, Mean (mmHg) ([2]; 100 nmol/kg i.v.): 114 mmHg
- Heart rate: 12 h, Mean (bpm) ([2]; 300 nmol/kg i.v.): 355 bpm
- Mean arterial pressure: 12 h, Mean (mmHg) ([2]; 300 nmol/kg i.v.): 102 mmHg
- Heart rate: 30 min, Mean (bpm) ([2]; 300 nmol/kg i.v.): 370 bpm
- Mean arterial pressure: 30 min, Mean (mmHg) ([2]; 300 nmol/kg i.v.): 111 mmHg
- HR compared to vehicle [2, 3]: no difference
- MAP compared to vehicle [2, 3]: no difference
- change in HR ([2]; first 12 h, 30 nmol/kg i.v.): No change
- increase in HR ([2]; first 12 h, 100 nmol/kg i.v.): 8.8±10.1%
- increase in HR ([2]; first 12 h, 300 nmol/kg i.v.): 6.4±6.6%
